What was measured:
KRAS G12D/RAF1 = target: T1, KRAS G12D/RAF1 (Homo sapiens, UniProt P01116, G12D); assay: Protein-protein interaction (PPI) HTRF assay KRAS G12D/RAF1; assay type: binding; settings: Table 4
T1 construct: His6-MBP (N, cleaved yes); made in house; host or cells: E. coli
Method: Biotinylated KRAS wt and KRAS G12DNV proteins were expressed and purified in conditions similar to those previously reported (Tran, et al., 2021) (Zhang, et al., 2020). Briefly, KRAS (1-169) proteins were expressed in E. coli at 18° C. with an upstream TEV cleavage site (ENLFYQS (SEQ ID NO: 6)) followed an Avi tag sequence ([…] (SEQ ID NO: 7)). KRAS expression constructs contained both a His6 (SEQ ID NO: 8) and maltose-binding protein (MBP) tags at the N-terminus for Ni-NTA column purification prior to overnight TEV cleavage and MBP column purification. The avi-tagged NRAS expression construct contained both a His6 tag (SEQ ID NO: 8) and SUMO cleavage sige at the N-terminus for Ni-NTA column purification followed by His-ULPi digestion overnight. All avi-tagged RAS proteins were dialyzed into buffer containing ATP, biotin, and BirA followed by purification over a second Ni-NTA column and then run over a size exclusion HiLoad™ 26/600 Superdex™ column in 20 mM HEPES, pH 7.5, 300 mM NaCl, 5 mM MgCl2, and 1 mM TCEP. Fractions containing the protein of interest were pooled, concentrated, and confirmed by intact mass spectrometry. To prepare ‘GTP’ loaded KRAS and NRAS, biotinylated KRAS or NRAS was nucleotide exchanged from GDP-bound protein to GppNHp-bound (Jena Biosciences, NU-401-50) protein in the presence of alkaline phosphatase and excess GppNHp as previously described and the resulting nucleotide content was confirmed by HPLC reverse phase analytical chromatography (Donohue, et al., 2019) (Tran, et al., 2021).
His-tagged RAF1 (52-131) was similarly expressed in E. coli at 18° C. overnight with an upstream TEV cleavage site. His-tagged RAF1 expression construct contained both a His6 (SEQ ID NO: 8) and MBP tags at the N-terminus for Ni-NTA column purification followed by MBP-tagged TEV digestion overnight. RAF1 protein samples were further purified over a MBP column followed by a Ni-NTA column and a second MBP column. The fractions containing the protein of interest were pooled, concentrated, and further purified over a HiLoad™ 16/600 Superdex™ 75 pg size exclusion column into 20 mM HEPES, pH8.0, 200 mM NaCl, 5 mM TCEP.
When RAS proteins are in the active GTP-bound conformation, they bind the effector protein RAF1 at the N-terminus Ras-binding domain (RBD, residues 52-131) (Tran, et al., 2021). Homogenous time resolved fluorescence (HTRF) was used to monitor the interaction between wt or mutant KRAS and RAF1 or wt NRAS and RAFT. Compounds were assayed in the presence of KRAS G12D/V and RAF1 versus wt KRAS to assess activity against mutant and w.t. KRAS. Similarly, compounds were then assayed in the presence of w.t. NRAS and RAF1 to assess RAS isoform selectivity. In all assay formats, His-tagged RAF1 protein was incubated with the HTRF donor, anti-6His (“6His” disclosed as SEQ ID NO: 8) Tb Cryptate gold (Cisbio 61DB10RDF), and biotinylated RAS proteins were incubated with the HTRF acceptor, streptavidin-d2 (CisBio 610SADLA). The intensity of the fluorescence signal emitted is proportional to binding between the two proteins. The donor solution was prepared by mixing 16 nM His-tagged RAF1 in protein dilution buffer with 1:100 anti-6His (“6His” disclosed as SEQ ID NO: 8) Tb cryptate in PPI-Terbium detection buffer. 16 nM biotinylated RAS protein was diluted into protein dilution buffer (50 mM Tris-HCl pH 7.5, 150 mM NaCl, 0.1 mM MgCl2, 1 mM TCEP, 0.005% Tween20) and mixed with 1:2000 Streptavidin-d2 diluted in PPI-Terbium detection buffer (CisBio 61DBTORDF). 50× compound in DMSO was mixed with 16 nM KRAS-acceptor solution and incubated for 30 minutes at room temperature. After compound pre-incubation with KRAS, the RAF1 donor solution was added to the KRAS-acceptor solution and incubated for 1 hour at room temperature. The fluorescence signal emitted was monitored at 665 nm and 615 nm using an Envision multimode plate reader. […]

[1] = target: T2, GST-tagged KRAS-G12D (2-169) (Homo sapiens, UniProt P01116, G12D); assay: Nucleotide exchange assay (NEA), SOS-mediated, HTRF, KRAS G12D; assay type: biochemical; settings: Table 4; IC50 extracted at 30 min
T2 construct: GST-tagged KRAS-G12D (2-169, Reaction Biology, MSC-11-539); purchased Reaction Biology MSC-11-539 (KRAS G12D); MSC-11-502 (SOS1cat)
T2 sequence (P01116 2-169 isoform P01116-2 G12D): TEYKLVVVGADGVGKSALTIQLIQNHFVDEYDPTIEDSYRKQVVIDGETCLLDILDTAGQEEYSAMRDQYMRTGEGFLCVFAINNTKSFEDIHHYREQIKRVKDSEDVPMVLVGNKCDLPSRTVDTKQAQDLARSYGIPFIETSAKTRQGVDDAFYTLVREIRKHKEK
Excerpt: This activity is tightly regulated by GTPase activating proteins (GAPs) and guanine nucleotide exchange factors (GEFs). GEFs, such as SOS1/2, activate Ras proteins by exchanging GDP for GTP, thus returning Ras to its active conformation (Simanshu, Nissley, & McCormick, 2017). […] Homogenous time resolved fluorescence (HTRF) was used to detect SOS-mediated binding of a fluorescent GTP analog, GTP-DY-647P1 (Jena Biosciences NU-820-647P1) to GST-tagged KRAS-G12D (2-169, Reaction Biology, MSC-11-539) or to GST-tagged KRAS-G12V (2-169, Reaction Biology, MSC-11-540).
GST-tagged KRAS-G12D (2-169) and anti-GST MAb Tb Cryptate Gold (CisBio 61GSTTLB) were diluted into assay buffer (20 mM HEPES, pH 7.3, 150 mM NaCl, 5 mM MgCl2, 0.05% BSA 0.0025% NP40, 1 mM DTT) to prepare a 2.5× donor solution. 5× compound was added to the protein mixture and incubated for 1 h at RT. 2.5× acceptor solution containing SOSIcat (564-1049, Reaction Biology MSC-11-502) and GTP-DY-647P1 were then added to the donor KRAS mixture such that the final concentration of the reaction contained 5 nM GST-tagged KRAS-G12D (2-169), 20 nM SOScat, and 150 nM GTP. The reaction was monitored using at RT with the Envision multimode plate reader (Ex/Em 337/665, […]) up to 90 minutes at 5 minute intervals. To monitor KRAS-G12V Sos-mediated nucleotide exchange, 80 nM SOS was added to reaction instead of 20 nM. All other components were the same as previously described. Data was blanked to reactions without SOS1 and % inhibition was calculated such that DMSO only=0% and blank=100%. Curve fitting was done using a 4 parameter fit. Reported IC50 values were extracted at 30 min and 90 min for the KRAS-G12D and KRAS-G12V assays, respectively.
Curve fitting was done using a 4 parameter fit. NEA KRAS G12D IC50 (uM) values of selected compounds are depicted in Table 2 with compounds having a value <0.01 uM as ++++; >0.01 uM to 0.1 uM as +++; >0.1 uM to 1 uM as ++; >1 uM to 20 uM as +; and >20 uM as NA.

T1 sequence (P01116 with tags, fused parts or gaps isoform P01116-2 G12D): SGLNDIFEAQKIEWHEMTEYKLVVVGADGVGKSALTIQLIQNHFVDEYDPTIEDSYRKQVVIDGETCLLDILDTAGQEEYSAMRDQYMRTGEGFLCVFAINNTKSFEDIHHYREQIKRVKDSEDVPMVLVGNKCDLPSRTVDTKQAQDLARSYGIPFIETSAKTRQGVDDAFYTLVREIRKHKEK

SMILES	IC50 (KRAS G12D/RAF1)	IC50 [1]
CN(C)C(=O)c1nn2c(c1Cl)CN(c1nc(OC[C@@]34CCCN3C[C@H](F)C4)nc(N3CC4(C3)C(=O)Cc3ccccc34)c1C#N)CCC2 [Compound 37, 3-chloro-5-[5-cyano-2-[[(2R,8S)-2-fluoro-1,2,3,5,6,7-hexahydropyrrolizin-8-yl]methoxy]-6-(2′-oxospiro[azetidine-3,1′-indane]-1-yl)pyrimidin-4-yl]-N,N-dimethyl-4,6,7,8-tetrahydropyrazolo[1,5-a][1,4]diazepine-2-carboxamide]	> 100000 nM	> 20000 nM
N#Cc1c(N2CCC(O)C(O)CC2)nc(OC[C@@]23CCCN2C[C@H](F)C3)nc1N1CC2(CCc3sc(N)c(C#N)c32)C1 (stereo partly drawn) [Compound 38, 2-amino-1′-[5-cyano-6-(4,5-dihydroxyazepan-1-yl)-2-[[(2R,8S)-2-fluoro-1,2,3,5,6,7-hexahydropyrrolizin-8-yl]methoxy]pyrimidin-4-yl]spiro[5,6-dihydrocyclopenta[b]thiophene-4,3′-azetidine]-3-carbonitrile]	1000 to 10000 nM	10 to 100 nM
N#Cc1c(N2C[C@H]3CC[C@@H](C2)N3)nc(OCC2(CN3CCOCC3)CC2)nc1N1CC2(CCc3sc4[nH]cnc(=O)c4c32)C1 [Compound 39, 2-[[1-(morpholinomethyl)cyclopropyl]methoxy]-4-(12-oxospiro[7-thia-9,11-diazatricyclo[6.4.0.02,6]dodeca-1(8), 2(6), 10-triene-3,3′-azetidine]-1′-yl)-6-[(1R,5S)-3,8-diazabicyclo[3.2.1]octan-3-yl]pyrimidine-5-carbonitrile]	> 100000 nM	100 to 1000 nM
CN(C)C(=O)c1nn2c(c1Cl)CN(c1nc(OC[C@@]34CCCN3C[C@H](F)C4)nc(N3CC4(CCc5sc6[nH]cnc(=O)c6c54)C3)c1C#N)CCC2 [Compound 44, 3-chloro-5-[5-cyano-2-[[(2R,8S)-2-fluoro-1,2,3,5,6,7-hexahydropyrrolizin-8-yl]methoxy]-6-(12-oxospiro[7-thia-9,11-diazatricyclo[6.4.0.02,6]dodeca-1(8), 2(6), 10-triene-3,3′-azetidine]-1′-yl)pyrimidin-4-yl]-N,N-dimethyl-4,6,7,8-tetrahydropyrazolo[1,5-a][1,4]diazepine-2-carboxamide]	> 100000 nM	1000 to 20000 nM
N#Cc1c(N2C[C@H]3CC[C@@H](C2)N3)nc(OCC2(CN3CCOCC3)CC2)nc1N1CC2(C1)C(=O)CCc1ccccc12 [Compound 50, 4-[(1R,5S)-3,8-diazabicyclo[3.2.1]octan-3-yl]-2-[[1-(morpholinomethyl)cyclopropyl]methoxy]-6-(2′-oxospiro[azetidine-3,1′-tetralin]-1-yl)pyrimidine-5-carbonitrile]	> 100000 nM	1000 to 20000 nM
N#Cc1c(N)sc2c1C1(CC2)CN(c2nc(OC[C@@]34CCCN3C[C@H](F)C4)nc(N3CCCC(C#N)CC3)c2F)C1 (stereo partly drawn) [Compound 51, 2-amino-1′-[6-(4-cyanoazepan-1-yl)-5-fluoro-2-[[(2R,8S)-2-fluoro-1,2,3,5,6,7-hexahydropyrrolizin-8-yl]methoxy]pyrimidin-4-yl]spiro[5,6-dihydrocyclopenta[b]thiophene-4,3′-azetidine]-3-carbonitrile]	1000 to 10000 nM	10 to 100 nM
N#Cc1c(N2C[C@H]3CC[C@@H](C2)N3)nc(OCC2(CN3CCOCC3)CC2)nc1N1CC2(C1)c1ccccc1CCC2O (stereo partly drawn) [Compound 53, 4-[(1R,5S)-3,8-diazabicyclo[3.2.1]octan-3-yl]-6-(2′-hydroxyspiro[azetidine-3,1′-tetralin]-1-yl)-2-[[1-(morpholinomethyl)cyclopropyl]methoxy]pyrimidine-5-carbonitrile]	> 100000 nM	100 to 1000 nM
N#CNC1CCCN(c2nc(OC[C@@]34CCCN3C[C@H](F)C4)nc(N3CC4(CCc5sc(N)c(C#N)c54)C3)c2F)C1 (stereo partly drawn) [Compound 54, [1-[6-(2-amino-3-cyano-spiro[5,6-dihydrocyclopenta[b]thiophene-4,3′-azetidine]-1′-yl)-5-fluoro-2-[[(2R,8S)-2-fluoro-1,2,3,5,6,7-hexahydropyrrolizin-8-yl]methoxy]pyrimidin-4-yl]-3-piperidyl]cyanamide]	100 to 1000 nM	100 to 1000 nM

Source: patent US12145947B2, “Pyrimidine based modulators and uses thereof” (Quanta Therapeutics, Inc., priority 2022, dated 2024)
